The test system of data set [1] is alpha1-adrenergic receptors. The following applies: cited from earlier work.
Data set [2] concerns cholinergic receptors. The conditions noted are these: in vitro binding studies; cited from earlier work.
Data set [3] has as its system alpha2 adrenergic receptors. The conditions noted are these: in vitro binding studies; cited from earlier work.
Data set [4] deals with T1, 5-HT1A receptors (Homo sapiens, UniProt P08908).
T1 sequence (P08908 1-422): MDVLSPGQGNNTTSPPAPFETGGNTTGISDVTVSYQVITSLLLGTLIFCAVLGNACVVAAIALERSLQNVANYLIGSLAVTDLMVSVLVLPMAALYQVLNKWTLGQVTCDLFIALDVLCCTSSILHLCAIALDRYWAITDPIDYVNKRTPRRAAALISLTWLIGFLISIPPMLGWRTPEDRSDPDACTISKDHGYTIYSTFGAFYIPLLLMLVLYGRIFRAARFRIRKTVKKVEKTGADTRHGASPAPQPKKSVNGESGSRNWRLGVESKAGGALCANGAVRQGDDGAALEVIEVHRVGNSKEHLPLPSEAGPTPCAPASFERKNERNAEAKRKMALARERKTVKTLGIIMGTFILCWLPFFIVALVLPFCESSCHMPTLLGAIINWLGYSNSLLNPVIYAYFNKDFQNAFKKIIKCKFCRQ
The following applies: in vitro binding studies; cited from earlier work.

The subject of data set [5] is dopaminergic receptors. The following applies: in vitro binding studies; cited from earlier work.
Data set [6] deals with α1 Receptor. The data set can be described thus: α1 receptor binding. The following applies: read-out: α1 Receptor Binding Alpha1 (IC50).
The subject of data set [7] is beta adrenergic receptors. The conditions noted are these: in vitro binding studies; cited from earlier work.
The test system of data set [8] is benzodiazepine receptors. The following applies: in vitro binding studies; cited from earlier work.
Data set [9] concerns the target T2, 5-HT5A (Homo sapiens, UniProt P47898).
T2 construct: host or cells: membrane preparations
The data set can be described thus: 5-HT5A receptor binding. The conditions noted are these: read-out: Serotonin Receptor Binding 5-HT5A (IC50). On the procedure:
(§1) Dopamine and serotonin receptor binding assays were performed in a standard manner with the incubation of membrane preparations in an assay buffer in the presence of a known radioactively labeled specific ligand for the receptor subtypes. Nonspecific binding was determined by assessing binding in the presence of excess ligand. Specific binding was measured as the total labeled ligand bound after the nonspecific binding was subtracted. The effect of the tested agents was measured by determining the competition for the receptor binding across a concentration range. Subsequently, an IC50 was determined for the agents tested. More specific details are provided below for several of the assays performed.

The target of data set [10] is T3, 5-HT1B (Homo sapiens, UniProt P28222).
T3 construct: host or cells: membrane preparations
T3 sequence (P28222 whole entry, species assumed): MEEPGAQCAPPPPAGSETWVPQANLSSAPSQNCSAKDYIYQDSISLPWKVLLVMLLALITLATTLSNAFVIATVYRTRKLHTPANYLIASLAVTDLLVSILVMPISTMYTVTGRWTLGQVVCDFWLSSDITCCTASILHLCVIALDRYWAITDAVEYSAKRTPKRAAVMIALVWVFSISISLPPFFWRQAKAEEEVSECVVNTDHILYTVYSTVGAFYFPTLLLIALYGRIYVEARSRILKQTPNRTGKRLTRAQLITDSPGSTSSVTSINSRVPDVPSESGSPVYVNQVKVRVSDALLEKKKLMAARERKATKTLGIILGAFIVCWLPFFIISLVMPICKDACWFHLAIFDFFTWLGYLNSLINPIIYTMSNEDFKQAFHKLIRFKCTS
Nature of the data set: 5-HT1B receptor binding. The following applies: read-out: Serotonin Receptor Binding 5-HT1B (IC50). The protocol:
as §1

The target of data set [11] is T4, Human D2 receptor (Homo sapiens, UniProt P14416).
T4 construct: expressed in transfected cells; host or cells: A9L cells
T4 sequence (P14416 whole entry): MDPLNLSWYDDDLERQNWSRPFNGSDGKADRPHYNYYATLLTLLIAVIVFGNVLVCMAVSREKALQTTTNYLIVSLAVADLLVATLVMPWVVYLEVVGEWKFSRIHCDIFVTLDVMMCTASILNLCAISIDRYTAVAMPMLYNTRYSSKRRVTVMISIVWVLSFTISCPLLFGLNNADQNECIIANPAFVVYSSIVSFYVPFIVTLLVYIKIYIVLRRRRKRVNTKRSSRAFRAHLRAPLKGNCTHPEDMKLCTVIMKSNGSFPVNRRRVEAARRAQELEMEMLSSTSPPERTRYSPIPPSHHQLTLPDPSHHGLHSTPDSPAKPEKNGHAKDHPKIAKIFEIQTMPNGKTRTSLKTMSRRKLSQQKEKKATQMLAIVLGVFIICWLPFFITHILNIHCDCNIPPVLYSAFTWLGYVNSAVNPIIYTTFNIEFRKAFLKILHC
The data set can be described thus: Dopamine D2 receptor binding. The following applies: [3H]spiperone, transfected A9L cell membranes. On the procedure: as §1
(§2) Aliquots of transfected A9L cell membrane preparations corresponding to 20-40 μg protein are incubated for 60 min at 22° C. in 250 μl of 50 mM Tris-HCl buffer (pH 7.4) containing 120 mM NaCl, 5 mM KCl, 5 mM MgCl2, 1 mM EDTA, 0.3 nM [^3H]spiperone and increasing concentrations of the competing drugs. Nonspecific binding is determined in the presence of 10 μM (+)butaclamol. After incubation, the samples are filtered rapidly under vacuum through glass fiber filters (GF/B, Packard) and rinsed several times with ice-cold 50 mM Tris-HCl using a cell harvester (Packard). Bound radioactivity is measured with a scintillation counter (Topcount, Packard) using a liquid scintillation cocktail (Microscint 0, Packard). The reference compound for this assay is (+)butaclamol.

Data set [12] deals with T5, 5-HT1D (Homo sapiens, UniProt P28221).
T5 construct: host or cells: membrane preparations
T5 sequence (P28221 whole entry, species assumed): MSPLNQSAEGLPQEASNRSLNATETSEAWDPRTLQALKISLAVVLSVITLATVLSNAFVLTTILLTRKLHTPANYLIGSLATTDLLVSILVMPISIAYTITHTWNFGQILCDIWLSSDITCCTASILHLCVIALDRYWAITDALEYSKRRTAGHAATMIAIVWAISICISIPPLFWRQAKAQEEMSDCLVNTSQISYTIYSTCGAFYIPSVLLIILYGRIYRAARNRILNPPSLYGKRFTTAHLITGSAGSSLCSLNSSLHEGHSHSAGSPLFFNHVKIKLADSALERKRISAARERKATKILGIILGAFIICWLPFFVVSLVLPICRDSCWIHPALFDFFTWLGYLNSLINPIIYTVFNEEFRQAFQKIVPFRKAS
The data set can be described thus: 5-HT1D receptor binding. The following applies: read-out: Serotonin Receptor Binding 5-HT1D (IC50). The protocol: as §1

Data set [13] addresses T1, 5-HT1A receptors. Nature of the data set: 5-HT1A receptor binding. The following applies: [3H]8-OH-DPAT, transfected CHO cell membranes; read-out: Serotonin Receptor Binding 5-HT1A (IC50). Also on record: expressed in transfected cells; host or cells: CHO cells. On the procedure: as §1
as §2, with “CHO” for “A9L”, “7-15” for “20-40”, “10” for “120”, “MgSO4, 0.5” for “NaCl, 5 mM KCl, 5 mM MgCl2, 1”, “[^3H]8-OH-DPAT” for “[^3H]spiperone”, “8-OH-DPAT.” for “(+)butaclamol.”

The conditions of data set [14]: cited from earlier work.

Data on one molecule can be found in patent US6469008B2, “(R)-hydroxynefazodone antipsychotic therapy” (Sepracor Inc., priority 1999, dated 2002).

T2 sequence (P47898 whole entry, species assumed): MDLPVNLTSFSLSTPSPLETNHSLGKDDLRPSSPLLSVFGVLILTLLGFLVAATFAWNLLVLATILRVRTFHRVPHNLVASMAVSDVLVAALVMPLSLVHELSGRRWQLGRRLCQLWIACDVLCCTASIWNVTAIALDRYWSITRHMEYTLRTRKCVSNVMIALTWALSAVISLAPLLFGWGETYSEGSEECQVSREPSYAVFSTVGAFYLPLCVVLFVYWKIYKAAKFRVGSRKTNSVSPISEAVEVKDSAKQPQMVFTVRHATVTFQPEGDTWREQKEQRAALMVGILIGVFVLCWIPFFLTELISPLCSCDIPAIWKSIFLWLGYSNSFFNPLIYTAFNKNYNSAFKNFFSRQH

In the case of `CCc1nn(CCCN2CCN(c3cccc(Cl)c3)CC2)c(=O)n1CCOc1ccccc1` [Nefazodone], the “action on alpha1-adrenergic receptors” value in [1] is on record as “antagonize”. Besides, the “affinity for cholinergic receptors” value in [2] is listed as “no significant affinity”. Also, in [3], the “affinity for alpha2 adrenergic receptors” value was “no significant affinity”. Moreover, the “affinity for 5-HT1A receptors” value in [4] is recorded as “no significant affinity”. For the same molecule, the “affinity for dopaminergic receptors” value in data set [5] is recorded as “no significant affinity”. The half-maximal inhibitory concentration (IC50) (as a rule, the midpoint of a concentration-inhibition curve) in [6] stood at 0.306 µM; in data set [9], 1.56 µM; in data set [10], 1.87 µM; in data set [11], 0.716 µM; in [12] it was 0.925 µM; in data set [13] it was 0.625 µM. The “affinity for beta adrenergic receptors” value in data set [7] is “no significant affinity”. Further, the “affinity for benzodiazepine receptors” value in [8] is recorded as “no significant affinity”. In addition, the “kinetics for dose and time (AUC and Cmax)” value in [14] (AUC and Cmax increasing more than proportionally with dose and upon multiple dosing) was “nonlinear kinetics”. In addition, the half-life – broadly, how long it takes for the measured level to halve – in data set [14] (in vivo) is 2 to 4 h. Besides, the “time of peak plasma concentrations” value in data set [14] (in vivo) was “about one”. Also, the absolute bioavailability result in data set [14] (low and variable because of extensive metabolism) is “about 20%”.
